Source: the NIST ThermoML archive (doi:10.1021/acs.jced.7b00429)

What was measured:
[1] = 100 kPa, Liquid; for viscosity: Falling or rolling sphere viscometry; for speed of sound: Frequency=3 MHz, Single path-length method; for mass density: Vibrating tube method
[2] = xn = mol fraction of the nth substance listed; settings: 100 kPa, Liquid, x2 = 0; for viscosity: Falling or rolling sphere viscometry; for speed of sound: Frequency=3 MHz, Single path-length method; for mass density: Vibrating tube method

CC#N [acetonitrile]
[1]
Settings | mass density [kg/m3] | speed of sound [m/s] | viscosity [mPa·s]
298.15 K | 776.71 | 1278.5 | 0.34
303.15 K | 771.29 | 1258.4 | 0.32
308.15 K | 765.83 | 1238.2 | 0.31
313.15 K | 760.34 | 1218 | 0.3
318.15 K | 754.82 | 1197.9 | 0.29
323.15 K | 749.25 | 1177.8 | 0.28

CCn1cc[n+](C)c1.O=S(=O)([O-])C(F)(F)F [1-ethyl-3-methylimidazolium trifluoromethanesulfonate]
[1]
Settings | mass density [kg/m3] | speed of sound [m/s] | viscosity [mPa·s]
298.15 K | 1379.91 | 1436 | 45.67
303.15 K | 1375.71 | 1425.4 | 38.31
308.15 K | 1371.51 | 1414.3 | 32.38
313.15 K | 1367.36 | 1403 | 27.68
318.15 K | 1363.21 | 1392.7 | 23.86
323.15 K | 1359.07 | 1381.7 | 20.75

CC#N [acetonitrile] + CCn1cc[n+](C)c1.O=S(=O)([O-])C(F)(F)F
[2]
Settings | mass density [kg/m3] | speed of sound [m/s] | viscosity [mPa·s]
298.15 K | 776.71 | 1278.5 | 0.34
303.15 K | 771.29 | 1258.4 | 0.32
308.15 K | 765.83 | 1238.2 | 0.31
313.15 K | 760.34 | 1218 | 0.3
318.15 K | 754.82 | 1197.9 | 0.29
323.15 K | 749.25 | 1177.8 | 0.28
